Reference: patent publication US20050239656A1, “Pyridine compounds or salts thereof and herbicides containing the same” (priority 2002, published 2005)

Key:
soybean = experiment: Test Example 2: soil surface treatment, upland pot test; format: in vivo, Glycine max Merr.; settings: active ingredient 500 g/ha, observed 20th to 28th day
Description: (§1) Upland field soil was put into a 1/170,000 ha pot, and seed of various plants (barnyardgrass, crabgrass, green foxtail, redroot pigweed, prickly sida, velvetleaf, rice, wheat, corn, soybean) were sown. On the 1st day after the sowing, a wettable powder or emulsifiable concentrate having the compound of the present invention formulated in accordance with a usual formulation method, was weighed so that the active ingredient would be a predetermined amount, and diluted with water in an amount of 1,500 L/ha. The herbicide thus adjusted was applied by a small size sprayer for soil surface treatment. On the 20th to 28th days after the application of the herbicide, the growth of the respective plants was visually observed, and the herbicidal effects were evaluated by the growth controlling degrees (%) ranging from 0 (equivalent to the non-treated plot) to 100 (complete kill), whereby the results shown in Table 4, were obtained.

corn = experiment: as above; format: in vivo, Zea mays L.; settings: active ingredient 500 g/ha, observed 20th to 28th day
Description: as §1

velvetleaf = experiment: as above; format: in vivo, Abutilon theophrasti MEDIC.; settings: active ingredient 500 g/ha, observed 20th to 28th day
Description: as §1

crabgrass = experiment: as above; format: in vivo, Digitaria sanguinalis L.; settings: active ingredient 500 g/ha, observed 20th to 28th day
Description: as §1

barnyardgrass [1] = experiment: as above; format: in vivo, Echinochloa crus-galli L.; settings: active ingredient 500 g/ha, observed 20th to 28th day
Description: as §1

rice = experiment: as above; format: in vivo, Oryza sativa L.; settings: active ingredient 500 g/ha, observed 20th to 28th day
Description: as §1

redroot pigweed = experiment: as above; format: in vivo, Amaranthus retroflexus L.; settings: active ingredient 500 g/ha, observed 20th to 28th day
Description: as §1

prickly sida = experiment: as above; format: in vivo, Sida spinosa L.; settings: active ingredient 500 g/ha, observed 20th to 28th day
Description: as §1

green foxtail = experiment: as above; format: in vivo, Setaria viridis L.; settings: active ingredient 500 g/ha, observed 20th to 28th day
Description: as §1

rice (var. Nihonbare) = experiment: Test Example 3: paddy pot test, transplanted rice; format: in vivo, Oryza sativa L.; settings: applied 4th day after transplantation, visually observed 21st day after application, 0 = non-treated, 100 = complete kill
Description: (§2) Paddy field soil was put into a 1/1,000,000 ha pot, and seed of barnyardgrass and japanese bulrush were sown and slightly covered with soil. Then, the pot was left to stand still in a greenhouse in a state where the depth of flooding water was from 0.5 to 1 cm, and one day or two days later, tubers of japanese ribbon wapato were planted. Thereafter, the depth of flooding water was maintained at a level of from 3 to 4 cm, and when barnyardgrass and japanese bulrush reached a 0.5 leaf stage and japanese ribbon wapato reached a primary leaf stage, an aqueous diluted solution of a wettable powder or emulsifiable concentrate having the compound of the present invention formulated in accordance with a usual formulation method, was uniformly applied under submerged conditions by a pipette so that the dose of the active ingredient would be at a predetermined level. On the other hand, paddy field soil was put into a 1/1,000,000 ha pot and puddled and leveled, and the depth of flooding water was from 3 to 4 cm. Next day, rice (var. Nihonbare) of 2 leaf stage was transplanted in a depth of 3 cm. On the 4th day after the transplantation, the compound of the present invention was applied in the same manner as described above. On the 14 days after the application of the herbicide, the growth of barnyard grass, japanese burlrush and japanese ribbon wapato was visually observed and on the 21st day after the application of the herbicide, the growth of rice was visually observed, and the herbicidal effects were evaluated by the growth-controlling degrees (%) ranging from 0 (equivalent to the non-treated plot) to 100 (complete kill), whereby the results shown in Table 5 were obtained.

japanese bulrush = experiment: Test Example 3: paddy pot test, application under submerged conditions; format: in vivo, Scirpus juncoides; settings: submerged application at 0.5 leaf stage, visually observed 14 days after application, 0 = non-treated, 100 = complete kill
Description: as §2, with “the” for “the other hand, paddy field soil was put into a 1/1,000,000 ha pot and puddled and leveled, and the depth of flooding water was from 3 to 4 cm. Next day, rice (var. Nihonbare) of 2 leaf stage was transplanted in a depth of 3 cm. On the 4th day after the transplantation, the compound of the present invention was applied in the same manner as described above. On the”

barnyardgrass [2] = experiment: as above; format: in vivo, Echinochloa crus-galli L.; settings: submerged application at 0.5 leaf stage, visually observed 14 days after application, 0 = non-treated, 100 = complete kill
Description: as §2, with “the” for “the other hand, paddy field soil was put into a 1/1,000,000 ha pot and puddled and leveled, and the depth of flooding water was from 3 to 4 cm. Next day, rice (var. Nihonbare) of 2 leaf stage was transplanted in a depth of 3 cm. On the 4th day after the transplantation, the compound of the present invention was applied in the same manner as described above. On the”

japanese ribbon wapato = experiment: as above; format: in vivo, Sagittaria pygniaea; settings: submerged application at primary leaf stage, visually observed 14 days after application, 0 = non-treated, 100 = complete kill
Description: as §2, with “the” for “the other hand, paddy field soil was put into a 1/1,000,000 ha pot and puddled and leveled, and the depth of flooding water was from 3 to 4 cm. Next day, rice (var. Nihonbare) of 2 leaf stage was transplanted in a depth of 3 cm. On the 4th day after the transplantation, the compound of the present invention was applied in the same manner as described above. On the”

| SMILES | Growth controlling degree (%) Soyabean (soybean) | Growth controlling degree (%) Corn (corn) | Growth controlling degree (%) Velvetleaf (velvetleaf) | Growth controlling degree (%) Crabgrass (crabgrass) | Growth controlling degree (%) Barnyardgrass (barnyardgrass [1]) | Growth controlling degree (%) Rice (rice) | Growth controlling degree (%) Redroot pigweed (redroot pigweed) | Growth controlling degree (%) Prickly sida (prickly sida) | Growth controlling degree (%) Green foxtail (green foxtail) | Growth controlling degree (%) Rice (rice (var. Nihonbare); active ingredient 250 g/ha) | Growth controlling degree (%) Japanese bulrush (japanese bulrush; active ingredient 250 g/ha) | Growth controlling degree (%) Barnyardgrass (barnyardgrass [2]; active ingredient 250 g/ha) | Growth controlling degree (%) Japanese ribbon wapato (japanese ribbon wapato; active ingredient 250 g/ha) | Growth controlling degree (%) Rice (rice (var. Nihonbare); active ingredient 500 g/ha) | Growth controlling degree (%) Japanese bulrush (japanese bulrush; active ingredient 500 g/ha) | Growth controlling degree (%) Japanese ribbon wapato (japanese ribbon wapato; active ingredient 500 g/ha) | Growth controlling degree (%) Barnyardgrass (barnyardgrass [2]; active ingredient 500 g/ha) |
| --- | --- | --- | --- | --- | --- | --- | --- | --- | --- | --- | --- | --- | --- | --- | --- | --- | --- |
| CNC(=S)N(C)C(c1cnccc1C(F)(F)F)C(C)C (racemic) [Compound I-112] | 10% | 10% | 10% | 70% | 20% | 40% | 70% | 40% | 50% | – | – | – | – | – | – | – | – |
| CC(C)C(c1cnccc1C(F)(F)F)N(C)C(=O)SCc1ccccc1 (racemic) [I-113] | 10% | 20% | 60% | 70% | 60% | 30% | 70% | 60% | 95% | 0% | 30% | 95% | – | – | – | – | – |
| CC(C)C(c1cnccc1C(F)(F)F)N(C)C(=O)Cc1ccc(C(F)(F)F)cc1F (stereo not shown) [Compound I-105] | 10% | 30% | 10% | 98% | 70% | 10% | 60% | 80% | 100% | 20% | 80% | 100% | – | – | – | – | – |
| CC(C)C(c1cnccc1C(F)(F)F)N(C)C(=O)Nc1ccccc1 (stereo not shown) [Compound I-230] | 0% | 40% | 0% | 98% | 50% | 10% | 60% | 30% | 70% | – | – | – | – | – | – | – | – |
| CCN(C(=O)Cc1ccc(C)cc1)C(c1cnccc1C(F)(F)F)C(C)C (stereo not shown) [I-101] | 0% | 10% | 30% | – | 70% | 0% | 80% | 30% | 70% | 10% | 98% | 100% | 40% | – | – | – | – |
| CC(C)C(c1cnccc1C(F)(F)F)N(C)C(=O)CCl (stereo not shown) [I-168] | 20% | 10% | 0% | 98% | 100% | 98% | 100% | 70% | 98% | – | – | – | – | – | – | – | – |
| Cc1ccc(C=CC(=O)N(C)C(c2cnccc2C(F)(F)F)C(C)C)cc1 (stereo not shown) [I-181] | 0% | 10% | 30% | 98% | 30% | 40% | 40% | – | 95% | – | – | – | – | 10% | 98% | 60% | 95% |
| CC(C)C(c1cnccc1C(F)(F)F)N(C)C(=O)COc1cccc(Cl)c1 (stereo not shown) [I-247] | – | – | – | – | – | – | – | – | – | 0% | 95% | 100% | 0% | – | – | – | – |
| CC(C)C(c1cnccc1C(F)(F)F)N(C)C(=O)COc1ccc(Cl)cc1 (stereo not shown) [I-248] | – | – | – | – | – | – | – | – | – | 0% | 98% | 98% | 20% | – | – | – | – |
| CC(C)C(c1cnccc1C(F)(F)F)N(C)C(=O)COc1c(F)c(F)c(F)c(F)c1F (stereo not shown) [I-252] | – | – | – | – | – | – | – | – | – | 0% | 98% | 95% | 0% | – | – | – | – |
| CC(C)C(c1cnccc1C(F)(F)F)N(C)C(=O)COc1cc([N+](=O)[O-])c(Cl)cc1Cl (stereo not shown) [I-253] | – | – | – | – | – | – | – | – | – | 10% | 20% | 90% | 0% | – | – | – | – |
